Laboratory results as given in article PMC7139875, “4-Pyridinio-1,4-Dihydropyridines as Calcium Ion Transport Modulators: Antagonist, Agonist, and Dual Action” (Oxidative Medicine and Cellular Longevity, 2020).
Like-named read-outs stand apart in the source and are kept apart here.

Tests used:
[1] = test system: [Ca2+]i in SH-SY5Y cells; assay: Ca2+ channel agonist activity, [Ca2+]i in Fluo-4 NW-loaded cells; assay type: cell-based, human; conditions: compound at 100 μM
Description: (§1) The intracellular free Ca^2+ concentration [Ca^2+]i was measured in confluent monolayers of SH-SY5Y or A7R5 cells with the Ca^2+-sensitive fluorescent indicator Fluo-4 NW according to the instruction (Fluo-4 NW Calcium Assay Kit, Thermo Fisher Scientific, cat. No. F36206) (as referenced by Vilskersts et al..
For the investigation of Ca^2+ channel agonist activity of the DHP compound, 4 […] NW loaded SH-SY5Y or A7R5 cells were stimulated by the addition of compound 4 at the concentration range from 4 to 100 μM. The well-known calcium channel agonist Bay K8644 was used as the positive control (at the concentration range from 4 to 100 μM).
(§2) Changes in [Ca^2+]i were measured from the fluorescence emitted at 516 nm due to alternate excitation at 494 nm using the microplate reader Tecan Infinite M1000 (Austria). Intracellular Ca^2+ concentration was calculated from a standard curve with known amounts of free Ca^2+ using the standard Ca^2+-EGTA buffering system (Calcium Calibration Buffer Kit, cat. No.C-3008, Thermo Fisher Scientific).
In some experiments, […] NW loaded cells were washed and placed in normal Ca^2+-free HEPES-buffered replacement medium. In Ca^2+ restoration experiments, Ca^2+ was initially absent from the medium and was restored to 1 mM after 870 s of stimulation with compound 4.

[2] = test system: Ca2+ ion channel activity evoked by compound 4 in SH-SY5Y cells; assay: Inhibitor analysis of Ca2+ ion channel activity evoked by compound 4; assay type: cell-based, human
Description: The intracellular free Ca^2+ concentration [Ca^2+]i was measured in confluent monolayers of SH-SY5Y or […] cells with the Ca^2+-sensitive fluorescent indicator Fluo-4 NW according to the instruction (Fluo-4 NW Calcium Assay Kit, Thermo Fisher Scientific, cat. No. F36206) (as referenced by […] al.. Changes in [Ca^2+]i were measured from the fluorescence emitted at 516 nm due to alternate excitation at 494 nm using the microplate reader Tecan Infinite M1000 (Austria). Intracellular Ca^2+ concentration was calculated from a standard curve with known amounts of free Ca^2+ using the standard Ca^2+-EGTA buffering system (Calcium Calibration Buffer Kit, cat. No.C-3008, Thermo Fisher Scientific). […] The commercial calcium agonist compound Bay […] was used as the reference compound.

[3] = test system: isolated rat aortic ring; assay: Isolated rat aortic ring model, KCl precontracted denuded rings; conditions: KCl precontracted denuded rat aortic rings; read-out: Calcium channel blocking activity EC50
Description: The experimental animal (one rat) was anesthetized with pentobarbital sodium (60 mg/kg i.p.). Once deep anesthesia was achieved, the thoracic aorta was dissected, placed in ice cold Krebs-Henseleit (K-H) buffer (content in mM: NaCl 118, KCl 4.7, CaCl2 2.5, MgCl2 1.64, NaHCO3 24.88, KH2PO4 1.18, glucose 10.0, sodium pyruvate 5.0, and disodium salt of ethylenediaminetetraacetic acid 0.05), cleaned from connective and fatty tissues, and cut into 3-4 mm long rings. Endothelium was mechanically scraped off with the tips of forceps, and the aortic rings were mounted between two stainless steel hooks attached to an isometric force transducer in 20 ml organ bath in K-H buffer bubbled with 95% O2 and 5% CO2 at 37°C (one separate aortic ring was used for each tested compound). Passive tension was adjusted to approximately 40 mN over a 60 min equilibration period. The experiment was started after the equilibration period by adding KCl solution to obtain a concentration of 50 mM. Addition of KCl induced contraction of the aortic rings, and a plateau of contraction was reached about […]. Thereafter, the tested compound solutions in dimethyl sulfoxide were added to the aortic rings in order to obtain the final concentrations in the range of 10^−10-10^−5 M. Changes in the tension were recorded using LabChart Pro software from ADInstruments (https://www.adinstruments.com/products/labchart/labchart-for-research). The EC50 values of the tested compounds were calculated using Prism 3.0 software from GraphPad (GraphPad Software Inc., USA) (https://www.graphpad.com/scientific-software/prism/). The experimental procedures involving experimental animals were carried out in accordance with the guidelines of the European Community, LR local laws and policies, and were approved by the Latvian Animal Protection Ethical Committee, the Food and Veterinary Service, Riga, Latvia.

[4] = test system: carbachol-dependent mobilization of intracellular Ca2+ in SH-SY5Y cells; parameters: method as in earlier work; conditions: SH-SY5Y cells stimulated by 100 nM carbachol; read-out: Antagonist effect IC50; cited from earlier work
[5] = test system: carbachol-dependent mobilization of intracellular Ca2+ in SH-SY5Y cells; assay: Antagonist effect on carbachol-evoked intracellular Ca2+ mobilization (Fluo-4 NW); assay type: cell-based, human; conditions: Homo sapiens; SH-SY5Y cells, 100 nM carbachol, 15 min preincubation; read-out: Antagonist activity (IC50)
Description: as §1
The investigation of Ca^2+ channel blocking activity of DHP derivatives was based on the effect of DHP on carbachol evoked intracellular Ca^2+ mobilization in human neuroblastoma cells.
The cells were preincubated in the dark for 15 minutes with the tested compounds at concentrations ranging from 0.16 to 100 μM. The application of carbachol (100 nM) to […] NW loaded SH-SY5Y cells stimulated a classic “biphasic” response. The well-known 3rd generation calcium channel inhibitor amlodipine, which is also claimed to act as antioxidant and free radical scavenger, was used as the positive control (at the concentration range from 20 to 100 μM).
as §2
The IC50 values for the tested compounds were calculated using GraphPad Prism 4.0 software.

With `CCOC(=O)C1=C(COCCN)NC(C)=C(C(=O)OC)C1c1ccccc1Cl` (stereo not drawn) [Amlodipine] the “Agonist activity (RFU, 100 μM)” value [1] was “No effect”, the inhibition at 100 µM ([2]; Homo sapiens, SH-SY5Y, inhibitor 100 μM, 15 min preincubation, 100 μM compound 4) was 50 ± 11% and the IC50 ([2]; Homo sapiens, 100 μM compound 4, SH-SY5Y cells, read-out: IC50 for inhibition of Ca2+ ion channel activity evoked by compound 4) was 100 µM. The “Inhibition (%) of Ca2+ ion channel activity evoked by compound 4” value ([2]; inhibitor 4 μM, 100 μM compound 4) was 0 ± 6%, the “Inhibition (%) of Ca2+ ion channel activity evoked by compound 4” value ([2]; inhibitor 20 μM, 100 μM compound 4) was 10 ± 11% and the “Phase of the compound 4 response that is inhibited” value ([2]; inhibitor 100 μM, 100 μM compound 4) was “inhibited the first phase of the response”. For the same compound, the EC50 [3] was 0.0143 ± 0.0003 µM, the IC50 [4] was 13 µM and the IC50 [5] was 11 ± 2 µM.
